Experimental data: patent publication US20250154109A1, “SODIUM CHANNEL BLOCKING COMPOUNDS, DERIVATIVES THEREOF, AND METHODS OF THEIR USE” (LATIGO BIOTHERAPEUTICS, INC, priority 2022, published 2025)
Where a name gives a salt, the structure may show the parent alone. Read-outs that look alike come from different tables or passages of the source.

Target: human Nav1.8 (Homo sapiens, UniProt Q9Y5Y9)
Test: SyncroPatch384PE assay (automated patch clamp)
Type: cell-based
Conditions: human Nav1.8/b3 CHO cells
[1] = inactivated state block (P2 measurement), read-out: P2 IC50
[2] = resting state block (P1 measurement), read-out: P1 IC50

Chain of human Nav1.8 (Q9Y5Y9 whole entry): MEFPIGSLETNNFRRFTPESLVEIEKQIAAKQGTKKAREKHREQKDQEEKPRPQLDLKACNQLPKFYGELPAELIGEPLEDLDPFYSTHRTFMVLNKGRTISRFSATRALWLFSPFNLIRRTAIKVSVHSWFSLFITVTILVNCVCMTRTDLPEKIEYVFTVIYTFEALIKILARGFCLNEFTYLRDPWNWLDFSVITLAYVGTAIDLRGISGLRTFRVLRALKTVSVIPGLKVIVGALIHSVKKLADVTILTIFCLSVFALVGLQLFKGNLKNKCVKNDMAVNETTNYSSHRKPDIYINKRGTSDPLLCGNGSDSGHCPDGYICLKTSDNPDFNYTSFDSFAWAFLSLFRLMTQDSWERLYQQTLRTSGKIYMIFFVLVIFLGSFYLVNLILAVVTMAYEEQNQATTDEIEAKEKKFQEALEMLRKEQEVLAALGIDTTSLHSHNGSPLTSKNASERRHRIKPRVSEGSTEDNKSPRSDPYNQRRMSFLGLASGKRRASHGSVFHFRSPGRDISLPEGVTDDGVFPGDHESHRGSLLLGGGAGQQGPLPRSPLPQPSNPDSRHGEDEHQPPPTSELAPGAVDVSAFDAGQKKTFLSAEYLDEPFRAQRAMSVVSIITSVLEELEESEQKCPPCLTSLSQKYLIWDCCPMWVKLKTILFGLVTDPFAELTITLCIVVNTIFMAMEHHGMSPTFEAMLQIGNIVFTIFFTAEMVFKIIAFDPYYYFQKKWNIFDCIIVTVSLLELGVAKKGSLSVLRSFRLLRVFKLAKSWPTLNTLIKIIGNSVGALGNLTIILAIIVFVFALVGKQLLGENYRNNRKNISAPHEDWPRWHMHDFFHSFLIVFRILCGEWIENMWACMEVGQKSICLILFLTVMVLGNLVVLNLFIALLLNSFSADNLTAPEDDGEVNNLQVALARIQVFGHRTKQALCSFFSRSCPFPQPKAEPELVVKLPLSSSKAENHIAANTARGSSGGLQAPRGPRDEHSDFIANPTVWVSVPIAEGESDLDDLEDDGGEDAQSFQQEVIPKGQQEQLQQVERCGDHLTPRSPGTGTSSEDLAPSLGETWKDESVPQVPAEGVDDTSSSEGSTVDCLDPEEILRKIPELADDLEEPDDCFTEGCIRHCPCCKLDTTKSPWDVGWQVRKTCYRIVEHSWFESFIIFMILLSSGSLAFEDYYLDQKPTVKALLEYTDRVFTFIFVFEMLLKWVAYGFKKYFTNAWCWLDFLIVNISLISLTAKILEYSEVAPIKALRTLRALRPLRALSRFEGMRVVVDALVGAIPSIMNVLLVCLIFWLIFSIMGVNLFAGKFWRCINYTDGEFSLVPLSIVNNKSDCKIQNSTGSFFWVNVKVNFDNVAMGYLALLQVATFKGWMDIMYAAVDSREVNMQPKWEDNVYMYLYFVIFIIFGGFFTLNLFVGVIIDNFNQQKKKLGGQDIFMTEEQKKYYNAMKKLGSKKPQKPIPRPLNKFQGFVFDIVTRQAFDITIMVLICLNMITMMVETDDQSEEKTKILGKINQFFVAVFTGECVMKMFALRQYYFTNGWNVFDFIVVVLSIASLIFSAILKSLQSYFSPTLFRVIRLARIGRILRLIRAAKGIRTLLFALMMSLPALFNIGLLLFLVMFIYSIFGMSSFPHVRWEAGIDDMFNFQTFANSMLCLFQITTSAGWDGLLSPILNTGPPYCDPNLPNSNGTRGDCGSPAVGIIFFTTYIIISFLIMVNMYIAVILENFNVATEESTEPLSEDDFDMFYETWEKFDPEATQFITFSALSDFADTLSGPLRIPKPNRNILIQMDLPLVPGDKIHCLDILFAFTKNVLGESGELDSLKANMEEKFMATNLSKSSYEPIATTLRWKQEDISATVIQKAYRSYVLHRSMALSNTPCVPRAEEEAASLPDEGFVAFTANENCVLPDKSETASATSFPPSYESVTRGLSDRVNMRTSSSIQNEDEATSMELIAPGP

Row | Compound | IC50 [1] [nM] | IC50 [2] [nM]
1 | Cc1c(C(F)(F)F)cnc(N2CCCC(F)(F)CC2)c1C(=O)Nc1cccc([S@](C)(=N)=O)c1 [Example 164, (R)-2-(4,4-difluoroazepan-1-yl)-4-methyl-N-(3-(S-methylsulfonimidoyl)phenyl)-5-(trifluoromethyl)nicotinamide] | ≤ 5 | ≤ 5
2 | Cc1c(Br)cnc(N2CCCC(F)(F)CC2)c1C(=O)Nc1cccc(S(C)(=N)=O)c1 (stereo not shown) [Example 86, 5-bromo-2-(4,4-difluoroazepan-1-yl)-4-methyl-N-(3-(S-methylsulfonimidoyl)phenyl)nicotinamide] | ≤ 5 | ≤ 5
3 | Cc1nc(N2CCCC(F)(F)CC2)c(C(=O)Nc2ccnc(S(=N)(N)=O)c2)cc1C(F)(F)F (stereo not shown) [Example 114, 2-(4,4-difluoroazepan-1-yl)-6-methyl-N-(2-sulfamidimidoylpyridin-4-yl)-5-(trifluoromethyl)nicotinamide] | ≤ 5 | ≤ 5
4 | Cc1c(C(F)(F)F)cnc(N2CCCC(F)(F)CC2)c1C(=O)Nc1cccc([S@@](C)(=O)=NC(=O)CO)c1 [Example 195, (R)-2-(4,4-difluoroazepan-1-yl)-N-(3-(N-(2-hydroxyacetyl)-S-methylsulfonimidoyl)phenyl)-4-methyl-5-(trifluoromethyl)nicotinamide] | ≤ 5 | ≤ 5
5 | Cc1noc(C)c1-c1cnc(N2CCCC(F)(F)CC2)c(C(=O)Nc2cccc([S@](C)(=N)=O)c2)c1C [Example 156, (R)-2-(4,4-difluoroazepan-1-yl)-5-(3,5-dimethylisoxazol-4-yl)-4-methyl-N-(3-(S-methylsulfonimidoyl)phenyl)nicotinamide] | > 200 | > 200
6 | Cc1c(-c2cnn(C)c2)cnc(N2CCCC(F)(F)CC2)c1C(=O)NC12CC(C(=O)O)(C1)C2 [Example 142, 3-(2-(4,4-difluoroazepan-1-yl)-4-methyl-5-(1-methyl-1H-pyrazol-4-yl)nicotinamido)bicyclo[1.1.1]pentane-1-carboxylic acid] | ≤ 5 | ≤ 5
7 | C[S@@](=N)(=O)c1cccc(NC(=O)c2c(N3CCCC(F)(F)CC3)cnc(C(F)(F)F)c2Cl)c1 [Example 208, (R)-3-chloro-5-(4,4-difluoroazepan-1-yl)-N-(3-(S-methylsulfonimidoyl)phenyl)-2-(trifluoromethyl)isonicotinamide] | 5 to 50 | 5 to 50
8 | Cc1c(C(F)(F)F)nnc(N2CCCC(F)(F)CC2)c1C(=O)Nc1ccnc(S(C)(=N)=O)c1 (stereo not shown) [Example 102, 3-(4,4-difluoroazepan-1-yl)-5-methyl-N-(2-(S-methylsulfonimidoyl)pyridin-4-yl)-6-(trifluoromethyl)pyridazine-4-carboxamide] | 5 to 50 | 5 to 50
9 | Cc1c(F)cnc(N2CCCC(F)(F)CC2)c1C(=O)Nc1cccc([S@](C)(=N)=O)c1 [Example 168, (R)-2-(4,4-difluoroazepan-1-yl)-5-fluoro-4-methyl-N-(3-(S-methylsulfonimidoyl)phenyl)nicotinamide] | 5 to 50 | 5 to 50
10 | Cc1nn(C)cc1-c1cnc(N2CCCC(F)(F)CC2)c(C(=O)Nc2cccc([S@](C)(=N)=O)c2)c1C [Example 146, (R)-2-(4,4-difluoroazepan-1-yl)-5-(1,3-dimethyl-1H-pyrazol-4-yl)-4-methyl-N-(3-(S-methylsulfonimidoyl)phenyl)nicotinamide] | > 200 | > 200
11 | Cc1c(N2CC3(COC3)C2)cnc(N2CCCC(F)(F)CC2)c1C(=O)Nc1cccc([S@@](C)(=N)=O)c1 [Example 90, (S)-2-(4,4-difluoroazepan-1-yl)-4-methyl-N-(3-(S-methylsulfonimidoyl)phenyl)-5-(2-oxa-6-azaspiro[3.3]heptan-6-yl)nicotinamide] | 100 to 200 | 100 to 200
12 | Cc1c(C#N)nnc(N2CCCC(F)(F)CC2)c1C(=O)Nc1cccc([S@](C)(=N)=O)c1 [Example 139, (R)-6-cyano-3-(4,4-difluoroazepan-1-yl)-5-methyl-N-(3-(S-methylsulfonimidoyl)phenyl)pyridazine-4-carboxamide] | 100 to 200 | > 200
13 | Cc1c(C#CCO)cnc(N2CCCC(F)(F)CC2)c1C(=O)Nc1cccc([S@](C)(=N)=O)c1 [Example 123, (R)-2-(4,4-difluoroazepan-1-yl)-5-(3-hydroxyprop-1-yn-1-yl)-4-methyl-N-(3-(S-methylsulfonimidoyl)phenyl)nicotinamide] | > 200 | > 200
14 | C[S@@](=N)(=O)c1cccc(NC(=O)c2cc(Cl)c(C(F)(F)F)cc2N2CCC(C(F)(F)F)CC2)c1 [Example 219, (R)-5-chloro-N-(3-(S-methylsulfonimidoyl)phenyl)-4-(trifluoromethyl)-2-(4-(trifluoromethyl)piperidin-1-yl)benzamide] | ≤ 5 | ≤ 5
15 | Cc1c(-c2ccc(C#N)cc2)cnc(N2CCCC(F)(F)CC2)c1C(=O)NC12CC(C(N)=O)(C1)C2 [Example 134, N-(3-carbamoylbicyclo[1.1.1]pentan-1-yl)-5-(4-cyanophenyl)-2-(4,4-difluoroazepan-1-yl)-4-methylnicotinamide] | > 200 | > 200
16 | CNCC(=O)N=[S@](C)(=O)c1cccc(NC(=O)c2c(N3CCCC(F)(F)CC3)ncc(-c3cc(F)cc(F)c3)c2C)c1 [Example 62, (R)-2-(4,4-difluoroazepan-1-yl)-5-(3,5-difluorophenyl)-4-methyl-N-(3-(S-methyl-N-(methylglycyl)sulfonimidoyl)phenyl)nicotinamide] | ≤ 5 | ≤ 5
17 | Cc1c(N2CC3(COC3)C2)cnc(N2CCCC(F)(F)CC2)c1C(=O)Nc1cccc([S@](C)(=N)=O)c1 [Example 116, (R)-2-(4,4-difluoroazepan-1-yl)-4-methyl-N-(3-(S-methylsulfonimidoyl)phenyl)-5-(2-oxa-6-azaspiro[3.3]heptan-6-yl)nicotinamide] | > 200 | > 200
18 | Cc1c(-c2cnn(C)c2)cnc(N2CCCC(F)(F)CC2)c1C(=O)Nc1cccc([S@@](C)(=O)=NC(=O)[C@H](C)O)c1 [Example 231, 2-(4,4-difluoroazepan-1-yl)-N-(3-((R)-N-((S)-2-hydroxypropanoyl)-S-methylsulfonimidoyl)phenyl)-4-methyl-5-(1-methyl-1H-pyrazol-4-yl)nicotinamide] | 5 to 50 | 5 to 50
19 | Cc1c(C(F)(F)F)cnc(N2CCCC(F)(F)CC2)c1C(=O)Nc1cccc([S@@](C)(=O)=NC(=O)CN2CC(F)(F)C2)c1 [Example 202, (R)-2-(4,4-difluoroazepan-1-yl)-N-(3-(N-(2-(3,3-difluoroazetidin-1-yl)acetyl)-S-methylsulfonimidoyl)phenyl)-4-methyl-5-(trifluoromethyl)nicotinamide] | ≤ 5 | ≤ 5
20 | Cc1nc(N2CCOCC2)nc(N2CCCC(F)(F)CC2)c1C(=O)Nc1cccc([S@](C)(=N)=O)c1 [Example 155, (R)-4-(4,4-difluoroazepan-1-yl)-6-methyl-N-(3-(S-methylsulfonimidoyl)phenyl)-2-morpholinopyrimidine-5-carboxamide] | > 200 | > 200
21 | Cc1c(-c2ccc(F)cc2)cnc(N2CCCC(F)(F)CC2)c1C(=O)Nc1cccc(S(C)(=N)=O)c1 (stereo not shown) [Example 88, 2-(4,4-difluoroazepan-1-yl)-5-(4-fluorophenyl)-4-methyl-N-(3-(S-methylsulfonimidoyl)phenyl)nicotinamide] | ≤ 5 | ≤ 5
22 | Cc1c(-c2cnn(C)c2)cnc(N2CCCC(F)(F)CC2)c1C(=O)Nc1cccc([S@@](C)(=O)=NC(=O)[C@H](C)N)c1 [Example 76, N-(3-((R)-N-(L-alanyl)-S-methylsulfonimidoyl)phenyl)-2-(4,4-difluoroazepan-1-yl)-4-methyl-5-(1-methyl-1H-pyrazol-4-yl)nicotinamide formate] | ≤ 5 | ≤ 5
23 | CNCC(=O)N=[S@](C)(=O)c1cccc(NC(=O)c2c(N3CCCC(F)(F)CC3)nc(C(F)(F)F)c(C#N)c2C)c1 [Example 65, (R)-5-cyano-2-(4,4-difluoroazepan-1-yl)-4-methyl-N-(3-(S-methyl-N-(methylglycyl)sulfonimidoyl)phenyl)-6-(trifluoromethyl)nicotinamide] | ≤ 5 | ≤ 5
24 | Cc1c(C#N)c(C(F)(F)F)nc(N2CCCC(F)(F)CC2)c1C(=O)Nc1cccc([S@@](C)(=O)=NC(=O)C2(N)CC2)c1 [Example 66, (R)-N-(3-(N-(1-aminocyclopropane-1-carbonyl)-S-methylsulfonimidoyl)phenyl)-5-cyano-2-(4,4-difluoroazepan-1-yl)-4-methyl-6-(trifluoromethyl)nicotinamide] | ≤ 5 | ≤ 5
25 | CS(=O)(=O)c1cccc(NC(=O)c2nnc(C(F)(F)F)cc2N2CCCC(F)(F)CC2)c1 [Example 39, 4-(4,4-Difluoroazepan-1-yl)-N-(3-(methylsulfonyl)phenyl)-6-(trifluoromethyl)pyridazine-3-carboxamide] | > 200 | > 200
26 | Cc1c(-c2ccncc2)cnc(N2CCCC(F)(F)CC2)c1C(=O)Nc1cccc(S(C)(=N)=O)c1 (stereo not shown) [Example 85, 6-(4,4-difluoroazepan-1-yl)-4-methyl-N-(3-(S-methylsulfonimidoyl)phenyl)-[3,4bipyridine]-5-carboxamide] | 50 to 100 | 50 to 100
27 | Cc1nc(N2CCCC(F)(F)CC2)c(C(=O)Nc2cccc([S@](C)(=N)=O)c2)c(C)c1C(F)(F)F (single isomer, unassigned) [Example 186] | ≤ 5 | ≤ 5
28 | Cc1c(-c2c(F)cccc2F)cnc(N2CCCC(F)(F)CC2)c1C(=O)Nc1cccc(S(C)(=N)=O)c1 (stereo not shown) [Example 104, 2-(4,4-difluoroazepan-1-yl)-5-(2,6-difluorophenyl)-4-methyl-N-(3-(S-methylsulfonimidoyl)phenyl)nicotinamide] | 5 to 50 | 5 to 50
29 | Cc1c(C(F)(F)F)nnc(N2CCCC(F)(F)CC2)c1C(=O)Nc1cccc([S@@](C)(=O)=NC(=O)CO)c1 [Example 232, (R)-3-(4,4-difluoroazepan-1-yl)-N-(3-(N-(2-hydroxyacetyl)-S-methylsulfonimidoyl)phenyl)-5-methyl-6-(trifluoromethyl)pyridazine-4-carboxamide] | ≤ 5 | ≤ 5
